Measured values from patent publication US20240285670A1, “THERAPEUTIC TREATMENT OF TUMORS BY BLOCKING THE HEME SYNTHESIS-EXPORT AXIS” (Università degli Studi di Torino, priority 2021, published 2024).

Key:
Format in all cases: cell-based, human
SHSY5Y cells = assay: Flow cytometric analysis of apoptosis in SHSY5Y cells; details: 5 mM ALA for 72 hours
BTECs = assay: Activity of mitochondrial ETC complexes I-IV in BTECs; details: FLVCR1a-silenced vs scramble shRNA BTECs
Source text: Results were expressed as nmol NAD*/min/mg mitochondrial protein for complex I, nmol reduced cytochrome c/min/mg mitochondrial protein for complexes II-III, nmol oxidized cytochrome c/min/mg mitochondrial protein for complex IV. Data represent mean±SEM, n=3. For statistical analyses, an unpaired Student's t-test was used; *=p<0.05, **=p<0.01, *=p<0.001. […] Results are expressed as nmol/mg mitochondrial proteins. Data represent mean±SEM, n=3. For statistical analyses, an unpaired Student's t-test was used; *=p<0.05. […] Results are expressed as pmol CO2/h/mg protein. Data represent mean±SEM, n=3. For statistical analyses, an unpaired Student's t-test was used; **=p<0.01. […] Results were expressed as nmol NAD*/min/mg mitochondrial protein for complex I, nmol reduced cytochrome c/min/mg mitochondrial protein for complexes II-III, nmol oxidized cytochrome c/min/mg mitochondrial protein for complex IV. […] Results are expressed as nmol/mg mitochondrial proteins. […] Results are expressed as pmol CO2/h/mg protein. […] (H) TCA cycle enzymes activities are reported in boxes and expressed as mU/mg mitochondrial proteins. […] Results were expressed as nmol NAD^+/min/mg mitochondrial protein for complex I, nmol reduced cytochrome c/min/mg mitochondrial protein for complexes II-III, nmol oxidized cytochrome c/min/mg mitochondrial protein for complex IV. […] Results are expressed as nmol/mg mitochondrial proteins. […]

Caco2 cells = assay: TCA cycle flux in Caco2 cells; details: FLVCR1a-silenced vs scramble shRNA Caco2 cells
Source text: TCA cycle flux is reported in the centre of the figure and expressed as pmol CO2/h/mg protein. Data represent mean±SEM, n=3. For statistical analyses, an unpaired Student's t-test was used. **=p<0.01. Moreover, TCA cycle enzymes activities are reported in boxes and expressed as mU/mg mitochondrial proteins. Data represent mean±SEM, n=3. For statistical analyses, an unpaired Student's t-test was used; *=p<0.05, ***=p<0.001. […] Results are expressed as pmol CO2/h/mg protein. Data represent mean±SEM, n=3. For statistical analyses, an unpaired Student's t-test was used; *=p<0.05, **=p<0.01.
(A) TCA cycle flux in Caco2 cells expressing a scramble shRNA untreated or treated with 25 μM hemin for 2 hours. Moreover, the TCA cycle flux of untreated FLVCR1a-silenced Caco2 cells is reported for comparison. Results are expressed as pmol CO2/h/mg protein. Data represent mean±SEM, n=3. […] Results are expressed as pmol CO2/h/mg protein. […] Results are expressed as pmol CO2/h/mg protein. […]
The glucose flux through TCA cycle was measured by radiolabeling cells with 2 μCi/ml [6-^14C]-glucose (55 mCi/mmol; PerkinElmer, Waltham, MA, USA, catalog n° NEC045X). […] The amount of glucose transformed into CO2 through the TCA cycle was calculated as described (Riganti et al., 2004) and expressed as pmoles CO2/h/mg cell proteins.

| Compound | apoptosis (SHSY5Y cells) | activity of ETC complexes (BTECs) | total flux of the TCA cycle (Caco2 cells) |
| --- | --- | --- | --- |
| Cl.NCC(=O)CCC(=O)O [5-ALA, 5-Aminolevulinic acid hydrochloride] | increased apoptosis | – | – |
| FLVCR1a shRNA: shRNA specifically down-regulating FLVCR1a without targeting FLVCR1b; pLKO.1 lentiviral clone TRCN0000059599, antisense SEQ ID No.: 2 (antisense TTGCTAATGATGCTGTACTGG; sense CCAGTACAGCATCATTAGCAA) | – | enhanced activity of ETC complexes | significantly up-regulated |
